For 25 compounds, TGI and GI50 results are on record in PubChem BioAssay (NCI).

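Where inhibition never reached the appropriate level, the endpoint shown equals the highest concentration tested. Otherwise, values were interpolated linearly from a five-concentration, 48-hour dose response in 96-well plates. GI50 marks 50% less growth. TGI: concentration producing complete growth inhibition.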

Assay in all cases: NCI anticancer screen, dose series, 48 h
For assay [1], the system named is SNB-75 CNS.
The subject of assay [2] is SN12C renal.
Assay [3] has as its system HCT-15 colon.
Assay [4] relates to UO-31 renal.
Assay [5] relates to EKVX NSCLC.
The test system of assay [6] is OVCAR-8 ovarian.
Assay [7] deals with SK-OV-3 ovarian.
In assay [8] the test system is COLO 205 colon.
Assay [9] has as its system U251 CNS.
The subject of assay [10] is RPMI-8226 leukemia.

Consider `CC(C)(C)OC(=O)Cc1ccc2c(ccn2Cc2ccccc2)c1`, for which the TGI in [1], in assay [2], in assay [3], in [4], in [5] and in assay [6] was more than 100 µM each time. For the same compound, the TGI in assay [7], in assay [8] and in assay [9] was more than 100 µM each time.
Consider `Cc1cc(SCC(=O)c2ccccc2)nc2ccccc12`, for which the TGI in assay [1], in assay [2], in assay [10], in [3], in [4] and in assay [5] was more than 100 µM in each case. Also, the TGI in [6], in assay [8] and in [9] was more than 100 µM in each case.
For the compound `CC(C)=CCC/C(=C/CC/C(C)=C/CCc1ccoc1)C(=O)O`, the TGI in [1], in assay [2], in [3], in assay [4], in assay [5] and in assay [6] was more than 100 µM throughout. Besides, the TGI in assay [7], in assay [8] and in assay [9] was more than 100 µM throughout.
Regarding `CN(C)P(=O)(/C(N)=N/Nc1ccc([N+](=O)[O-])cc1)N(C)C`, the TGI in assay [1], in assay [2], in [10], in [3], in assay [4] and in assay [5] was more than 100 µM in each case. For the same compound, the TGI in assay [6], in assay [8] and in assay [9] was more than 100 µM throughout.
With `O=C(O)CP(=S)(S)c1ccccc1` (configuration not stated), the TGI in assay [2], in [4], in assay [5], in assay [6], in [7] and in [8] was more than 100 µM throughout. The same compound showed a TGI in assay [9] of more than 100 µM.
Take `COC(=O)C1=NC(=S)NC(c2ccccc2)C1c1nc2ccccc2s1` (configuration not stated): the TGI in [1], in assay [2], in assay [3], in [4], in assay [5] and in assay [6] was more than 100 µM each time. Further, the TGI in [7], in assay [8] and in assay [9] was more than 100 µM each time.
As to `O=C(N/N=C/c1cccc(O)c1O)c1ccccc1`, the GI50 in assay [1] was 4.66 µM; in assay [2] it was 0.73 µM; in [10], 1.3 µM; in assay [3], 0.466 µM; in [4], 0.434 µM; in assay [6] it was 0.587 µM. Further, the GI50 was 3.68 µM in [7], 1.97 µM in assay [8] and 0.569 µM in [9]. Moreover, the TGI was 85.6 µM in assay [1]; more than 100 µM in assay [2]; more than 100 µM in [10]; more than 100 µM in [3]; 14 µM in [4]; more than 100 µM in assay [6]. Moreover, the TGI is more than 100 µM in assay [7], more than 55.7 µM in assay [8] and more than 100 µM in assay [9].
For the compound `CCOC(=O)CN=c1nc(SC)sc2c(C(=O)OCC)nc(Sc3ccccc3)n12`, the TGI in assay [2], in [10], in assay [4], in assay [5], in [6] and in [7] was more than 100 µM in each case. The same compound registered a TGI in assay [8] of more than 100 µM.
For the compound `CC12CCCC(O)C1CCC1=CC3(CCC12)SCCS3` (configuration not stated), the TGI in [1], in assay [2], in [10], in [3], in assay [6] and in [7] was more than 10 µM throughout. The TGI in assay [8] and in [9] was more than 10 µM in each case.
With `CCOC(=O)c1cc(/C(=N\O)c2cc(OC)c(OC)c(OC)c2)n2cc(C)cc(C)c12`, the GI50 in assay [1] was 1.48 µM; in assay [2], 3.86 µM; in [10], 2.46 µM; in [3], 2.82 µM; in assay [5], 3.83 µM; in assay [6], 5.38 µM. Moreover, the GI50 is 1.89 µM in assay [7] and 2.64 µM in assay [9]. Further, the TGI in [1] is 4.48 µM; in assay [2], more than 100 µM; in [10], 5.79 µM; in assay [3], more than 100 µM; in assay [5], more than 100 µM; in assay [6] it was more than 100 µM. Moreover, the TGI came out at 4.8 µM in assay [7] and 9.32 µM in [9].
Take `Cc1cccc(NC(=O)C(=O)Cc2nc3ccccc3[nH]c2=O)c1C`: the TGI in [1], in assay [2], in assay [3], in assay [4], in assay [5] and in [6] was more than 100 µM in each case. Further, the TGI in assay [7], in [8] and in assay [9] was more than 100 µM throughout.
`COC(=O)c1cc(Br)c(Br)n1C`: the TGI in [1], in [2], in assay [4], in assay [5], in [6] and in assay [7] was more than 100 µM throughout. The TGI in [8] and in assay [9] was more than 100 µM throughout.
As to `Nc1ncc(-c2cnn(CCO)c2)c2scc(-c3ccc(NC(=O)Nc4cccc(F)c4)cc3)c12`, the GI50 in [1] was 0.271 µM; in [2] it was 0.186 µM; in [10], 0.454 µM; in assay [3], 0.371 µM; in assay [4] it was 0.219 µM; in assay [6] it was 0.253 µM. Besides, the figures for the GI50 in assay [7], in assay [8] and in assay [9] were 0.338 µM, less than 0.01 µM and 0.301 µM, respectively. Moreover, the TGI amounted to 1.74 µM in assay [1]; 6.59 µM in assay [2]; 2.81 µM in assay [10]; 14.3 µM in assay [3]; 1.98 µM in assay [4]; 2.39 µM in [6]. Further, the TGI in assay [7] is 3.99 µM; in assay [8] it was less than 0.0307 µM; in [9], 1.72 µM.
With `NC1=NN(c2ccccc2)C(=O)C1C(=O)CCC(=O)Nc1cccc(C(F)(F)F)c1` (configuration not stated), the TGI in assay [2], in [3], in assay [4], in assay [5], in [6] and in assay [7] was more than 100 µM throughout. The TGI in assay [8] and in [9] was more than 100 µM throughout.
As to `COc1cc(C2=NN(C(C)=O)C(c3ccc(OC(C)=O)cc3OC(C)=O)O2)c(OC(C)=O)c2ccccc12` (configuration not stated), the GI50 in [1] is 2.28 µM; in [2], 0.864 µM; in assay [10] it was 2.74 µM; in assay [3], 0.581 µM; in assay [4], 0.38 µM; in [6] it was 0.426 µM. Also, the GI50 was 0.649 µM in assay [7], 2.58 µM in assay [8] and 0.472 µM in [9]. In addition, the TGI was 29.6 µM in assay [1]; more than 43.8 µM in [2]; 14.7 µM in assay [10]; 25.6 µM in assay [3]; 7.12 µM in assay [4]; 33.7 µM in assay [6]. Also, the TGI came out at 19.7 µM in assay [7], 10.1 µM in assay [8] and 14.8 µM in [9].
Take `Fc1cc(F)c(COc2cc(Cn3cnc4c(Cl)nc(Cl)nc43)ccc2C23CC4CC(CC(C4)C2)C3)cc1F`: the GI50 in [1] was 21.7 µM; in assay [2], 11 µM; in [3] it was 16 µM; in [4] it was 17.8 µM; in [5], 23.3 µM; in [6], 18 µM. In addition, the values for the GI50 in [7], in [8] and in [9] were 22 µM, 17.8 µM and 16.8 µM, respectively. The TGI in assay [1] came out at 52.1 µM; in [2], 24.9 µM; in assay [3], 31.9 µM; in assay [4], 31.6 µM; in [5], 50.8 µM; in assay [6], 38.4 µM. Further, the figures for the TGI in assay [7], in [8] and in assay [9] were 43.3 µM, 39.1 µM and 30.4 µM, respectively.
On to `Cc1noc(C)c1CCCOC1COc2ccccc2OCCOCCOc2ccccc2OC1`, for which the TGI in assay [1], in assay [2], in assay [3], in [4], in assay [5] and in [6] was more than 100 µM in each case. The TGI in [7], in [8] and in assay [9] was more than 100 µM throughout.
For the compound `O=c1cccccc1NCCCNc1cccccc1=O`, the TGI in assay [2] was 32.3 µM; in assay [10], more than 100 µM; in [3], more than 100 µM; in [4] it was more than 100 µM; in [5], more than 100 µM; in assay [6], more than 100 µM. Further, the TGI in assay [7], in assay [8] and in [9] was more than 100 µM in each case.
As for `Nc1ccc(/C=C/c2ccnc3ccccc23)cc1`, the TGI in [1] was 41.8 µM; in assay [10] it was 52.7 µM; in [3], more than 100 µM; in [4], 47.5 µM; in assay [6] it was 88.2 µM; in [8] it was 48.6 µM. The compound further displayed a TGI in [9] of 59.4 µM.
For `CCOC(=O)Sc1ncnc2nc[nH]c12`, the GI50 is 0.747 µM in [1]; 7.94 µM in assay [2]; 2.86 µM in [3]; 4.14 µM in assay [4]; 38.5 µM in assay [5]; 3.08 µM in assay [6]. The GI50 in [7] was 0.484 µM; in assay [8], 3.92 µM; in assay [9] it was 12.9 µM. Moreover, the TGI in [1], in assay [2], in assay [3], in [4], in [5] and in assay [6] was more than 100 µM each time. Moreover, the TGI in [7] was more than 100 µM; in [8], 46.4 µM; in assay [9], more than 100 µM.
In the case of `Cc1ccc(/C(=C/C=C(C#N)C#N)Sc2ccc(Cl)cc2)cc1`, the GI50 is 4.32 µM in [2]; 2.34 µM in assay [10]; 4.12 µM in assay [3]; 22.3 µM in assay [5]; 11.4 µM in assay [6]; 16.4 µM in assay [7]. The GI50 is 7.58 µM in [8] and 3.65 µM in assay [9]. For the same compound, the TGI in assay [2] was determined as 18 µM; in [10], 7.96 µM; in assay [3], 23.1 µM; in assay [5], 49.4 µM; in [6], 32.4 µM; in [7], 36.1 µM. Besides, the TGI was 30.4 µM in assay [8] and 14.8 µM in assay [9].
Regarding `COc1c2c(cc3nc4ccccc4nc13)CCC(C(C)(C)O)C2` (configuration not stated), the TGI in assay [1], in [2], in [3], in [4], in assay [5] and in assay [6] was more than 100 µM in each case. The TGI in assay [7], in assay [8] and in assay [9] was more than 100 µM each time.
Regarding `CCCCCCCC(CC(=O)NC(CO)C(=O)NC(CO)CC(C)C)OC(=O)CC(CCCCCCC)OC(=O)CC(CCCCCCC)OC1OC(C)C(O)C(OC2OC(C)C(O)C(OC(C)=O)C2O)C1O` (configuration not stated), the TGI in assay [1] is 19.1 µM; in assay [2], 19.9 µM; in assay [4], 28.3 µM; in [5] it was 28.7 µM; in [6] it was 28.3 µM; in assay [7] it was 30.8 µM. The TGI in assay [8] stood at 18.9 µM; in assay [9], 17.2 µM.
As for `COC(=O)C(=O)C(C(=O)C(=O)Nc1ccccc1C(N)=O)c1nc2ccc(Cl)cc2[nH]c1=O` (configuration not stated), the TGI in assay [1], in [2], in assay [10], in [3], in assay [4] and in [6] was more than 100 µM in each case. For the same compound, the TGI in [7], in [8] and in assay [9] was more than 100 µM throughout.
Regarding `NC(CC(=O)OCc1ccccc1)C(=O)OCc1ccccc1` (configuration not stated), the TGI in [2], in assay [10], in [3], in [4], in assay [5] and in assay [6] was more than 100 µM in each case. Moreover, the TGI in [8] is more than 100 µM.
